pKd: −log10 of the molar value.
Tests used:
[1] = PRAPP photolysis under 312 nm UV, followed by HPLC; type: physicochemical; conditions: PBS under 312 nm UV irradiation; irradiation at 312 nm, 100 μM in PBS pH 7.4; read-out: photolysis half-life (T1/2)
Procedure: The PRAPP (100 μM) was dissolved in PBS (50 mM, pH 7.4 [1% DMSO v/v]) and irradiated with UV light (λ = 312 nm, 120 V, 60 Hz, 0.2 A [Spectroline model EB-160C], distance ∼4 cm). UV light was removed from the reaction mixtures at varying time points (1, 2, 5, 10, and 20 min) and immediately analyzed by HPLC-UV–vis278 nm (injection volume of 5 μL). PRAPP % remaining was determined based on the area under the curve (AUC) of the UV–vis278 nm chromatogram. A first-order exponential decay curve was generated based on the AUC of the UV–vis chromatogram at 0, 1, 2, 5, 10, and 20 min and used to determine t1/2 of photolysis.

[2] = system: 25 kDa covalently modified band in HAP1 cells; test: Photoaffinity labeling with HAP1 wild-type and Hsp27 knockout cells; type: binding; conditions: 15 μM PRAPP
Source text: First, we conducted photoaffinity labeling studies with wild-type (WT) HAP1 cells to verify the existence of the 25 kDa covalent modification that we observed in PC12 cells.
Figure 7 Photoaffinity Labeling Experiments with HAP1 cells. […] The nonspecific background modifications remain unchanged with increasing concentration of P3, further confirming the 25 kDa covalently modified band as a true target; (B) comparison of the photoaffinity labeling experiments with HAP1 wild-type (WT) cells and Hsp27 knockout (KO) cells at 15 μM PRAPP concentration.

14-3-3-Q = molecular target: T1, 14-3-3-Q (Homo sapiens, UniProt P27348); test: Fluorescent thermal shift assay (FTSA) with 14-3-3-Q; type: binding
T1 construct: purchased Abchem (so in the source)
T1 sequence (P27348 1-245): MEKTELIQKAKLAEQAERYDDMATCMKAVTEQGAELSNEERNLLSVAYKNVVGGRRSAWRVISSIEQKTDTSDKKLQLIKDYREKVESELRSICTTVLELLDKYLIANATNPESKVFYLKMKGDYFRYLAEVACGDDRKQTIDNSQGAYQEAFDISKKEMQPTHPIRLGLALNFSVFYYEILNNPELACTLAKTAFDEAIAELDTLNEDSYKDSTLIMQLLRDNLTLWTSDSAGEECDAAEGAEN
Procedure: (§1) His-tagged 14-3-3-E, B, and H plasmids were purchased from Addgene (plasmid ID# 31562, 39128, and 38814, respectively). E. coli (BL21) were transformed with extracted plasmids via heat shock and plated on selected media. Individual colonies were selected, grown, and sequenced to confirm gene presence. 1 L cultures were grown to an OD600 of 0.6 at 37 °C and 220 rpm. Protein expression was induced with 1 mM IPTG and expressed for 12 h at 100 rpm and room temperature (approximately 25 °C). Cells were spun down at 4000 rpm for 15 min at 4 °C and resuspended in lysis buffer containing 50 mM Tris (7.4), 150 mM NaCl, 0.08% DDM, 5 mM imidazole, and 5% glycerol (with an EDTA-free complete mini protease inhibitor cocktail). Cells were lysed via sonication, and the lysate was separated from cell debris by centrifugation at 15,000 rpm, 4 °C, for 45 min. The His-tagged protein was purified using QIAGEN Ni-NTA superflow columns, and the His-tag was removed with TEV protease. His-tag-removed proteins were further purified by size exclusion chromatography. His tag removal and size exclusion chromatography purification were done at the Northwestern University Protein Production core. […]
(§2) All of the FTSA experiments were conducted in HEPES buffer (60 mM HEPES, 150 mM NaCl, pH 7.4). […] The fluorescence was measured on a Bio-Rad CFX384 real-time PCR instrument.

14-3-3-B = molecular target: T2, 14-3-3-B (Homo sapiens, UniProt P31946); test: Fluorescent thermal shift assay (FTSA) with 14-3-3-B; type: binding; conditions: 0 and 100 μM P2
T2 construct: His-tag (TEV-cleavable) (cleaved yes); host or cells: E. coli (BL21)
T2 sequence (P31946 1-246): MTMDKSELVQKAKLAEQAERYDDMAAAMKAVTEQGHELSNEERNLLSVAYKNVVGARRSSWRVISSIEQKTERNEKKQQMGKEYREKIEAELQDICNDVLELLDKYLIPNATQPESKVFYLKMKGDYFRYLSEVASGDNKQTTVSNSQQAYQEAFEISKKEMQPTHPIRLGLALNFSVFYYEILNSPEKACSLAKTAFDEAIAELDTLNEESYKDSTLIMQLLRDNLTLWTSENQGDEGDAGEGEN
Procedure: as §1, §2

14-3-3-G = molecular target: T3, 14-3-3-G (Homo sapiens, UniProt P61981); test: Fluorescent thermal shift assay (FTSA) with 14-3-3-G; type: binding; conditions: 0 and 100 μM P2
T3 construct: purchased Abchem (so in the source)
T3 sequence (P61981 1-247): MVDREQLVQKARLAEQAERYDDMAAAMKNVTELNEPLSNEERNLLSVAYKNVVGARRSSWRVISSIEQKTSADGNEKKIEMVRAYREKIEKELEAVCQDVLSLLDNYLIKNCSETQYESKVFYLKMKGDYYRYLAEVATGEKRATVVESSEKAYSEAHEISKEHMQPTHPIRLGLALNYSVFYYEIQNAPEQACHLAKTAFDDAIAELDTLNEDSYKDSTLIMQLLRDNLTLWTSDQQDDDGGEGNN
Procedure: as §1, §2

transgenic mice = conditions: earlier work of the authors; cited from earlier work

SMILES	half-life at 100 μM [1] [min]	intensity of the 25 kDa covalently modified band in Hsp27 KO versus WT cells [2]	Tm shift (ΔTm) (14-3-3-Q; SYPRO orange) [°C]	pKd (14-3-3-Q; fit of ΔTm versus concentration, n = 2, read-out: Kd^app)	binding (Tm shift) (14-3-3-B)	binding (Tm shift) (14-3-3-G)	increase of the median survival rate (transgenic mice) [%]
C#CCN(Cc1cc(=O)[nH][nH]1)Cc1c(F)c(F)c(N=[N+]=[N-])c(F)c1F [PRAPP, 5-(((4-Azido-2,3,5,6-tetrafluorobenzyl)(prop-2-yn-1-yl)amino)methyl)-1,2-dihydro-3H-pyrazol-3-one]	3.12	remains unchanged	–	–	–	–	–
O=c1cc(COc2cc(Cl)cc(Cl)c2)[nH][nH]1 [P2]	–	–	1.1	5.36	no binding	no binding	13
